Test results from patent US12275685B2, “Oligo-benzamide analogs and their use in cancer treatment” (Board of Regents, The University of Texas System, priority 2018, dated 2025).

Assays:
[1] = system: nuclear receptor (NR) interaction with its coregulator proteins; assay: Inhibition of nuclear receptor-coregulator interaction in cancer cells; type: cell-based
Experimental: The present oligo-benzamide analogs are extremely potent and effective on various cancer cells including breast cancer, ovarian cancer, and pancreatic cancer. These compounds have a unique mode of action compared to existing therapeutic treatments to these diseases. The compounds are very potent with IC50 values of 10-50 nM for growth inhibition. TK41 is a tris-benzamide analog and it inhibits nuclear receptor (NR) interaction with its coregulator proteins in cancer cells with high potency (IC50 is approximately 100 nM; FIGS. 1-4).

lipase activity of LIPA = target: T1, lipase activity of LIPA (Homo sapiens, UniProt P38571); assay: Lipase activity assay; type: biochemical; settings: SUM-159 cells
T1 construct: lipase activity of parental SUM-159 (WT) and SUM-159 cells with LIPA KO; endogenous in cells; host or cells: SUM-159 (parental)
Source text: FIGS. 39A-N: (FIGS. 39A-E) Predicted binding mode of ERX-41 (colored in green) on the human lysosomal acid lipase (LAL, PDB code: 6V7N, LXXLL (SEQ ID NO: 1) domain colored in orange). (FIG. 39F) PDB structure of LAL protein showing relative positions of the catalytic domain (with H274Y MT) and the LXXLL (SEQ ID NO: 1) domain (L242P MT). (FIG. 39G) Evaluation of the effect of ERX-41 and lalistat (known lipase inhibitor) on lipase activity of parental SUM-159 (WT) and SUM-159 cells with LIPA KO. (FIG. 39H) Evaluation of basal lipase activity in parental SUM-159 (WT), SUM-159 cells with LIPA KO (KO), SUM-159 cells with LIPA KO and with reconstitution of either WT LIPA (KO+WT), H274Y MT-LIPA (KO+H274Y), DLXXLL (SEQ ID NO: 2) MT-LIPA (KO+DLXXLL (SEQ ID NO: 2)) or L242P MT-LIPA (KO+L242P). Protein expression of LAL and control vinculin in these cells are shown below (FIG. 391) Cellular lysates from described SUM-159 cells were incubated with biotinylated ERX-11 or biotinylated ERX-41 and then subject to a streptavidin column. Elutants were then evaluated for LIPA pulldown by western blotting. (FIG. 39J) Dose response curve to increasing concentrations of ERX-41 in described SUM-159 cells. (FIGS. 39K-M) Effect of vehicle or 1 μM ERX-41 on induction of UPR genes at the protein level (FIG. 39K) or RNA level (FIGS. 39L-M). […]

TNBC cells = assay: ER stress induction in TNBC cells (electron microscopy, western blots); type: cell-based
Experimental: FIGS. 36A-H: ERX-41 induces ER stress in TNBC. (FIGS. 36A-C) Volcano plots show the relative effect of 4 h treatment of 1 μM ERX-41 compared to vehicle in MDA-MB-231 (FIG. 36A), BT-549 (FIG. 36B) TNBC and HMEC (FIG. 36C) cell lines. (FIG. 36D) Gene ontology analyses show the top regulated pathways. (FIG. 36E) Heatmap of the top ER stress and UPR genes in these three TNBC cell lines after 2 h and 4 h treatment with 1 μM ERX-41 treatment. […] (FIG. 36G) Time course of the effect of 1 μM ERX-41 on the mRNA expression of canonical ER stress genes, HSPAS and DDIT3 and UPR stress sensor-sXBP1 in MDA-MB-231, BT-549 and HMEC cells.
The basal level of expression of endoplasmic reticulum stress and unfolded protein response correlates with TK41 activity (FIG. 28). Modulation of the level of these stress proteins affects the activity of TK41. Thus, the basal level of expression of endoplasmic reticulum stress and unfolded protein response proteins may serve as a biomarker to predict response to TK41. […] Without wishing to be bound by any particular theory, the mechanism of action of TK41 may operate comprise targeting either ER or TLX and inducing endoplasmic reticulum stress, subsequent apoptosis, and blocking autophagic fusion (FIG. 30).
ERX-41 induces endoplasmic reticulum stress in TNBC. To understand the mechanism of action of ERX-41 in TNBC, the inventors performed unbiased RNA sequencing studies in three TNBC (SUM-159, MDA-MB-231, and BT549) and normal HMEC cell lines (FIGS. 36A-C). […] Heatmaps show the induction of ER stress and UPR genes in these three TNBC cell lines (FIG. 36E). Evaluation of ER stress induction was then performed with ultrastructural studies using electron microscopy (EM) studies.

T1 sequence (P38571 77-399): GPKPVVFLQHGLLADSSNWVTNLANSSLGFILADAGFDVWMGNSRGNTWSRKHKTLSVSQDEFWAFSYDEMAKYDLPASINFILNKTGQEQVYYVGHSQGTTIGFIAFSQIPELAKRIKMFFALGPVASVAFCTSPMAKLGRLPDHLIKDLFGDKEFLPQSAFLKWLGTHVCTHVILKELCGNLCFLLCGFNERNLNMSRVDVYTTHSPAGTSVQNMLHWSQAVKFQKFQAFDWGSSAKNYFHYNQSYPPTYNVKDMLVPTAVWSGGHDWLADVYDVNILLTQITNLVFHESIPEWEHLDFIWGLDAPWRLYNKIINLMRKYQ

CC(C)COc1cc(C(=O)Nc2ccc(C(=O)N[C@H]3CC[C@H](C)CC3)cc2OCC(C)C)ccc1NC(=O)c1ccc([N+](=O)[O-])c(OCCO)c1 [TK41]
IC50 [1]: ~100 nM | effect on lipase activity of LIPA (lipase activity of LIPA): no inhibition of lipase activity | induction of ER stress and UPR proteins (p-PERK, IRE1a, eiF2a, CHOP) (TNBC cells; 1 μM, western blotting, TNBC cells): induces ER stress and downstream UPR pathways | induction of endoplasmic reticulum stress (TNBC cells; TNBC MD-MBA-231 cells): induce endoplasmic reticulum stress | dilation of the ER by electron microscopy (TNBC cells; within 4 h of treatment, TNBC cells): induced dramatic dilation of the ER
